The text below walks through data of publication PMC8708751, “Hit Identification of a Novel Quinazoline Sulfonamide as a Promising EphB3 Inhibitor: Design, Virtual Combinatorial Library, Synthesis, Biological Evaluation, and Docking Simulation Studies” (Pharmaceuticals, 2021).

Common to all, as to format: biochemical
One assay deals with T1, CDK2/cyclin A (Homo sapiens, UniProt P24941).
T1 construct: purchased Reaction Biology Co. (Kinase HotSpot service)
The assay is described as follows: Kinase panel assay, CDK2/cyclin A. Particulars: read-out: Average % Enzyme Inhibition (Relative to DMSO Controls) at 10 µM. The procedure: (§1) The screening of the tested compounds was performed using the Kinase HotSpot^SM service from Reaction Biology Co. (http://www.reactionbiology.com, accessed on 25 September 2021). The HotSpot assay platform contains specific kinase/substrate pairs along with required cofactors. Base reaction buffer: 20 mM Hepes (pH 7.5), 10 mM MgCl2, 1 mM EGTA, 0.02% Brij35, 0.02 mg/mL BSA, 0.1 mM Na3VO4, 2 mM DTT, 1% DMSO. The tested compounds were dissolved in 100% DMSO to specific concentration. The serial dilution was conducted by Integra Viaflo Assist in DMSO (Sigma-Aldrich, Burlington, MA, USA). The reaction mixture containing the examined compound and 33P-ATP was incubated at room temperature for 2 h, and radioactivity was detected by filter-binding method. Kinase activity data were expressed as the percent remaining kinase activity in test samples compared to vehicle (dimethyl sulfoxide) reactions. IC50 values and curve fits were obtained using Prism (GraphPad Software, San Diego, CA, USA).

Another assay deals with T2, EphB1 (Homo sapiens, UniProt P54762).
T2 construct: purchased Reaction Biology Co. (Kinase HotSpot service)
T2 sequence (P54762 18-984): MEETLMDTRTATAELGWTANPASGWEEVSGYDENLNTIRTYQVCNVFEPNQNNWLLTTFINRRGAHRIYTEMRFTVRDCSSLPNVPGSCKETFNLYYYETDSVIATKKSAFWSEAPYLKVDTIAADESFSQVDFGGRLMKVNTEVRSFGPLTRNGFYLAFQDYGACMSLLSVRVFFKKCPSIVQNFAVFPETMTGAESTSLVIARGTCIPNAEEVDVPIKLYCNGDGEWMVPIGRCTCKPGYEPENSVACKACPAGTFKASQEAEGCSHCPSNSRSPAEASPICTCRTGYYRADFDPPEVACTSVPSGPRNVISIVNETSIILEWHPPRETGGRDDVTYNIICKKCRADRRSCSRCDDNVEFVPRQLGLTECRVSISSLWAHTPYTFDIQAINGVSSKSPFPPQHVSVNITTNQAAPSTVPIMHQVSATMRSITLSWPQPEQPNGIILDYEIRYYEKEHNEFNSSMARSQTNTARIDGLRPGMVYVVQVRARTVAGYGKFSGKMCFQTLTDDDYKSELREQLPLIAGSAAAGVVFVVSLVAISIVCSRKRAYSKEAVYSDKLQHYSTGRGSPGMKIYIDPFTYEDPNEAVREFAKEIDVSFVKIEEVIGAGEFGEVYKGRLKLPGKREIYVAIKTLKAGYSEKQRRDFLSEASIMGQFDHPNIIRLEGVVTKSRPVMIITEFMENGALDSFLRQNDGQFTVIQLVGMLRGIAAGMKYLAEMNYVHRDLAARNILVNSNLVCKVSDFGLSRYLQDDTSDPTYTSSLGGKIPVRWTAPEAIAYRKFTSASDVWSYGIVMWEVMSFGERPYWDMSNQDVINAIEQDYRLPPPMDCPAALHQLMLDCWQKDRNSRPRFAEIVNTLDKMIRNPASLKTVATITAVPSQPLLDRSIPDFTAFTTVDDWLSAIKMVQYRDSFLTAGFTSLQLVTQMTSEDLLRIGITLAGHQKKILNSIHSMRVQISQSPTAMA
The assay is described as follows: Kinase panel assay, EphB1. The method, then: as §1, with “The” for “The screening of the tested compounds was performed using the Kinase HotSpot^SM service from Reaction Biology Co. (http://www.reactionbiology.com, accessed on 25 September 2021). The”

The next assay deals with T3, EphB2 (Homo sapiens, UniProt P29323).
T3 construct: purchased Reaction Biology Co. (Kinase HotSpot service)
T3 sequence (P29323 19-1055): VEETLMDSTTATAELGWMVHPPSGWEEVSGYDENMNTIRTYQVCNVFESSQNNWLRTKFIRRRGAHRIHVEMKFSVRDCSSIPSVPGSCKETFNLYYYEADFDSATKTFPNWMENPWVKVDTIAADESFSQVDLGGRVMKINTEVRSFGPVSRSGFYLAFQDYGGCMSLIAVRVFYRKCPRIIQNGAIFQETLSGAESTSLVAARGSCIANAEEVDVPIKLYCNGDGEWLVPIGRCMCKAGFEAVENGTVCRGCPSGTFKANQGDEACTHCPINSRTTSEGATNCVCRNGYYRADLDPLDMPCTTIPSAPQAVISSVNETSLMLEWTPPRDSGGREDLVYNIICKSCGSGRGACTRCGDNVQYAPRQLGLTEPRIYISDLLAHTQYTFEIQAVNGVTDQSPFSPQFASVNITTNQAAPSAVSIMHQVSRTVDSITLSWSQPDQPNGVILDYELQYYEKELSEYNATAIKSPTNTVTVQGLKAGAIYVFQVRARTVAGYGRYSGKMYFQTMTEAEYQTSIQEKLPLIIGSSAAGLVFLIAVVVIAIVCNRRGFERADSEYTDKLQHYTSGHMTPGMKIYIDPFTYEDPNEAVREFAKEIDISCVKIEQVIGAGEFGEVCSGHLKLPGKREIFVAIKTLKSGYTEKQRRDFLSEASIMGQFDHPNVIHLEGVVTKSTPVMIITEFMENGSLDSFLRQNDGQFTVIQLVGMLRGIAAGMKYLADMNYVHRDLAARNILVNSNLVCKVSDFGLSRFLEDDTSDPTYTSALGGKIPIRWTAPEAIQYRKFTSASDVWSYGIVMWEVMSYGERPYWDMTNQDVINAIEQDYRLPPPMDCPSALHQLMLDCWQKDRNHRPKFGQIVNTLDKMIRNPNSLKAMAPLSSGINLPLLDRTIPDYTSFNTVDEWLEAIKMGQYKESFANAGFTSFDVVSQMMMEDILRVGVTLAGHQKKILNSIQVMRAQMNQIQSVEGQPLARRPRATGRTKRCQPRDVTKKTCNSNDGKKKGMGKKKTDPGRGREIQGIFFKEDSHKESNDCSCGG
Briefly: Kinase panel assay, EphB2. The method, then:
[…]. A further dose-dependent assay was conducted to validate the selectivity of compound 4c over the EphB isoforms. […]. Accordingly, it could be considered as a promising selective inhibitor for EphB3 isoform.
as §1

Turning to `NS(=O)(=O)c1ccc(Nc2ncnc3ccc(-c4cccc(O)c4)cc23)cc1` [Compound 4c, 4-((6-(3-Hydroxyphenyl)quinazolin-4-yl)amino)benzenesulfonamide], the inhibition at 10 µM at CDK2/cyclin A came out at 75 ± 2.07%; at EphB1 (EphB1, 10 µM, read-out: Average % Enzyme Inhibition (Relative to DMSO Controls) at 10 µM), 58.9 ± 1.98%; at EphB2 (EphB2, 10 µM, read-out: Average % Enzyme Inhibition (Relative to DMSO Controls) at 10 µM) it was 76.32 ± 0.61%. For the same compound, the IC50 is 5.86 µM against EphB1 (EphB1, dose-dependent assay) and 3.95 µM on EphB2 (EphB2, dose-dependent assay).
